From ChEMBL document CHEMBL2331247, “Anti-inflammatory norditerpenoids from the soft coral Sinularia maxima” (Bioorg Med Chem Lett, 2013)

What was measured:
Format in all cases: functional
[1] = Antiinflammatory activity against in C57BL/6 mouse BMDC assessed as inhibition of LPS-stimulated TNFalpha production compound pre-incubated for 1 hr before LPS challenge by ELISA
[2] = Antiinflammatory activity against in C57BL/6 mouse BMDC assessed as inhibition of LPS-stimulated IL6 production compound pre-incubated for 1 hr before LPS challenge by ELISA
[3] = Antiinflammatory activity against in C57BL/6 mouse BMDC assessed as inhibition of LPS-stimulated IL12 production compound pre-incubated for 1 hr before LPS challenge by ELISA

SMILES | IC50 [1] [µM] | IC50 [2] [µM] | IC50 [3] [µM]
C=C(C)[C@H]1CCC2=C[C@@H](C[C@@]3(C)CC(=O)[C@H](CC(=O)C1)O3)OC2=O | > 100 | > 100 | > 100
C[S+]([O-])c1ccc(-c2nc(-c3ccc(F)cc3)c(-c3ccncc3)[nH]2)cc1 (centres undefined) [SB-203580] | 7.37 | 3.56 | 5.67
C=C(C)[C@@H]1CC(=O)CC2=C(C1)[C@@H]1C(=O)O[C@@H]3CC(C)=C(C2=O)[C@H]13 [YONAROLIDE] | > 100 | > 100 | > 100
C=C(C)[C@H]1C/C=C(\C(=O)OC)CC(=O)C[C@@]2(C)CC(=O)[C@@H](CC(=O)C1)O2 [NORCEMBRENE 5] | > 100 | > 100 | > 100
C=C(C)[C@@H]1CC(=O)CC2=C(C1)[C@@H]1C(=O)O[C@@H]3C[C@](C)(O)[C@H](C2=O)[C@H]13 [SCABROLIDE A] | > 100 | 69.9 | 23.5
C=C(C)[C@@H]1CC(=O)C[C@@H]2O[C@](C)(CC2=O)C[C@@H]2C=C(C(=O)O2)[C@H](OC)C1 | > 100 | 13.1 | 5.3
C=C(C)[C@@H]1CC(=O)[C@H]2[C@H](C1)[C@@H]1C(=O)O[C@@H]3C[C@@]4(C)O[C@H]2C(=O)[C@@H]4[C@H]13 [INELEGANOLIDE] | > 100 | > 100 | > 100
C=C(C)[C@@H]1CC(=O)CC2=C(C1)[C@]1(O)C(=O)O[C@@H]3C[C@](C)(O)[C@H](C2=O)[C@@H]31 | > 100 | > 100 | > 100
